Reference: US11696913B2, “Prolonged ectoparasite-controlling agent for animal” (MITSUI CHEMICALS AGRO, INC., priority 2017, dated 2023)

Assays:
Ctenocephalides felis [1] = assay: In vitro contact test with fleas; conditions: read-out: insecticidal activity; for pest or weed control at 0.2 µg/cm2, 0.2 µg/cm2: dose 0.2 μg/cm^2, dead or moribund fleas after 48 h; for pest or weed control at 1 µg/cm2, 1 µg/cm2: dose 1 μg/cm^2, dead or moribund fleas after 48 h; for pest or weed control at 0.04 µg/cm2, 0.04 µg/cm2: dose 0.04 μg/cm^2, dead or moribund fleas after 48 h
Summary of the method: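 Activity is the percentage of fleas dead or moribund at 48 h, judged by immobility or uncoordinated movement after tapping. Tubes were coated by evaporating acetone solutions (900 ppm gives 5 μg/cm^2), then held 5-10 adult fleas of both sexes at room temperature and ambient humidity.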

[2] = test system: Rhipicephalus (Boophilus) microplus; assay: In vitro injection test with Rhipicephalus (Boophilus) microplus (BOOPMI Inj); conditions: 168 h, laid fertile eggs after 7 days, read-out: acaricidal activity; for pest or weed control at 32 ng: dose 0.032 μg/animal injected; for pest or weed control at 0.00016 mg: dose 0.16 μg/animal injected; for pest or weed control at 0.0008 mg: dose 0.8 μg/animal injected; for pest or weed control at 6.4 ng: dose 0.0064 μg/animal injected
Summary of the method: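 Five engorged adult females each get a 1 μl abdominal injection of compound dissolved and diluted in DMSO. Kept 7 days at 28° C./85% rel. hum.; percent activity rates egg laying and egg fertility (0% all fertile, 100% none laid or infertile).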

Laodelphax striatellus = assay: Insecticidal testing against small brown planthopper; assay type: in vivo; conditions: 144 h, concentration 100 ppm, sprayed rice seedlings, after 6 days, read-out: pesticidal rate
Summary of the method: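 Acetone solution of compound at a set concentration sprayed onto rice seedlings, air-dried, then exposed to 10 planthoppers (one group). Held at 25° C; survival rate recorded after 6 days.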

Spodoptera litura = assay: Insecticidal testing against common cutworm; assay type: in vivo; conditions: foliar, 144 h, concentration 100 ppm, cabbage leaf dip, second-stage larvae, after 6 days, read-out: pesticidal rate
From the text: Insecticidal Testing Against Common Cutworm (Spodoptera litura)

Rhipicephalus sanguineus = assay: In vitro contact test with adult hard ticks (Rhipicephalus sanguineus); conditions: read-out: acaricidal activity; for pest or weed control at 0.2 µg/cm2, 0.2 µg/cm2: dose 0.2 μg/cm^2, 48 h; for pest or weed control at 1 µg/cm2, 1 µg/cm2: dose 1 μg/cm^2, 48 h; for pest or weed control at 0.04 µg/cm2, 0.04 µg/cm2: dose 0.04 μg/cm^2, 48 h
Summary of the method: (§1)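 Acaricidal activity = % ticks dead or moribund after 48 h contact with acetone-deposited compound on vial walls (e.g., 900 ppm solution → 5 μg/cm^2). Ambient conditions for R. sanguineus, 21° C./85% rel. hum. for other species; heat challenge at 45-50° C. separated climbers from moribund ticks.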

Amblyomma americanum = assay: In vitro contact test with hard ticks (Amblyomma americanum nymphs); conditions: read-out: acaricidal activity; for pest or weed control at 0.2 µg/cm2, 0.2 µg/cm2: dose 0.2 μg/cm^2, 48 h; for pest or weed control at 1 µg/cm2, 1 µg/cm2: dose 1 μg/cm^2, 48 h
Summary of the method: as §1

Ixodes ricinus = assay: In vitro contact test with adult hard ticks (Ixodes ricinus); conditions: read-out: acaricidal activity; for pest or weed control at 5 µg/cm2, 5 µg/cm2: dose 5 μg/cm^2, 48 h; for pest or weed control at 0.2 µg/cm2, 0.2 µg/cm2: dose 0.2 μg/cm^2, 48 h; for pest or weed control at 1 µg/cm2, 1 µg/cm2: dose 1 μg/cm^2, 48 h
Summary of the method: as §1

Ctenocephalides felis [3] = assay: Ctenocephalides felis in-vitro feeding test with fleas (CTECFE oral); conditions: 48 hours, read-out: insecticidal feeding activity; for pest or weed control at 0.032 ppm: dose 0.032 ppm in citrated cattle blood; for pest or weed control at 0.16 ppm: dose 0.16 ppm in citrated cattle blood; for pest or weed control at 0.8 ppm: dose 0.8 ppm in citrated cattle blood; for pest or weed control at 4 ppm: dose 4 ppm in citrated cattle blood
Summary of the method: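 Scored as percent fleas killed (0–100%) 48 hours after feeding began. Compound, dissolved in DMSO and diluted into citrated cattle blood, was offered via a parafilm membrane to roughly 20 adult male and female C. felis at about 37° C.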

Plutella xylostella = assay: Insecticidal testing against diamondback moth; assay type: in vivo; conditions: foliar, 144 h, concentration 100 ppm, cabbage leaf dip, third-stage larvae, after 6 days, read-out: pesticidal rate
From the text: Insecticidal Testing Against Diamondback Moth (Plutella xylostella)

Dermacentor variabilis = assay: In vitro contact test with adult hard ticks (Dermacentor variabilis); conditions: read-out: acaricidal activity; for pest or weed control at 1 µg/cm2, 1 µg/cm2: dose 1 μg/cm^2, 48 h; for pest or weed control at 0.04 µg/cm2, 0.04 µg/cm2: dose 0.04 μg/cm^2, 48 h; for pest or weed control at 0.2 µg/cm2, 0.2 µg/cm2: dose 0.2 μg/cm^2, 48 h
Summary of the method: as §1

Compound	pest or weed control at 0.2 µg/cm2, 0.2 µg/cm2 (Ctenocephalides felis [1])	pest or weed control at 1 µg/cm2, 1 µg/cm2 (Ctenocephalides felis [1])	pest or weed control at 32 ng [2]	pest or weed control at 0.00016 mg [2]	pest or weed control at 0.0008 mg [2]	pest or weed control at 100 ppm (Laodelphax striatellus)	pest or weed control at 100 ppm (Spodoptera litura)	pest or weed control at 0.2 µg/cm2, 0.2 µg/cm2 (Rhipicephalus sanguineus)	pest or weed control at 1 µg/cm2, 1 µg/cm2 (Rhipicephalus sanguineus)	pest or weed control at 0.2 µg/cm2, 0.2 µg/cm2 (Amblyomma americanum)	pest or weed control at 1 µg/cm2, 1 µg/cm2 (Amblyomma americanum)	pest or weed control at 5 µg/cm2, 5 µg/cm2 (Ixodes ricinus)	pest or weed control at 0.16 ppm (Ctenocephalides felis [3])	pest or weed control at 0.8 ppm (Ctenocephalides felis [3])	pest or weed control at 4 ppm (Ctenocephalides felis [3])	pest or weed control at 100 ppm (Plutella xylostella)	pest or weed control at 1 µg/cm2, 1 µg/cm2 (Dermacentor variabilis)	pest or weed control at 0.04 µg/cm2, 0.04 µg/cm2 (Rhipicephalus sanguineus)	pest or weed control at 0.2 µg/cm2, 0.2 µg/cm2 (Dermacentor variabilis)	pest or weed control at 0.2 µg/cm2, 0.2 µg/cm2 (Ixodes ricinus)	also measured
O=C(Nc1cccc(C(=O)Nc2c(I)cc(C(F)(C(F)(F)F)C(F)(F)C(F)(F)F)cc2C(F)(F)F)c1F)c1ccc(C(F)(F)F)nc1 (stereo not shown) [Compound 102]	95%	95%	100%	100%	100%	≥ 70%	≥ 70%	90%	90%	90%	90%	90%	95%	95%	95%	≥ 70%	90%				pest or weed control at 0.032 ppm (Ctenocephalides felis [3]): 95%
O=C(Nc1cccc(C(=O)Nc2c(I)cc(C(F)(C(F)(F)F)C(F)(F)C(F)(F)F)cc2C(F)(F)F)c1F)c1ccc(F)nc1 (stereo not shown) [Compound 82]	95%	95%	100%	100%	100%	≥ 70%	≥ 70%	90%	90%	90%	90%	90%	95%	95%	95%	≥ 70%	90%	90%	90%		pest or weed control at 0.04 µg/cm2, 0.04 µg/cm2 (Ctenocephalides felis [1]): 95%; pest or weed control at 6.4 ng [2]: 100%; pest or weed control at 0.04 µg/cm2, 0.04 µg/cm2 (Dermacentor variabilis): 90%
CN(C(=O)c1ccc(F)c(F)c1)c1cccc(C(=O)Nc2c(I)cc(C(F)(C(F)(F)F)C(F)(F)F)cc2OC(F)F)c1F [Compound 109]	95%	95%	100%	100%	100%	≥ 70%	≥ 70%				90%	90%	95%	95%	95%	≥ 70%	90%	90%	90%	90%	pest or weed control at 0.04 µg/cm2, 0.04 µg/cm2 (Ctenocephalides felis [1]): 95%; pest or weed control at 6.4 ng [2]: 100%; pest or weed control at 1 µg/cm2, 1 µg/cm2 (Ixodes ricinus): 90%; pest or weed control at 0.032 ppm (Ctenocephalides felis [3]): 95%
O=C(Nc1cccc(C(=O)Nc2c(I)cc(C(F)(C(F)(F)F)C(F)(F)F)cc2OC(F)F)c1F)c1ccc(F)cc1 [Compound 92]	95%	95%	100%	100%	100%	≥ 70%	≥ 70%	90%	90%	90%	90%	90%	95%	95%	95%	≥ 70%		90%	90%	90%	pest or weed control at 0.04 µg/cm2, 0.04 µg/cm2 (Ctenocephalides felis [1]): 95%; pest or weed control at 6.4 ng [2]: 100%; pest or weed control at 1 µg/cm2, 1 µg/cm2 (Ixodes ricinus): 90%; pest or weed control at 0.032 ppm (Ctenocephalides felis [3]): 95%; pest or weed control at 0.04 µg/cm2, 0.04 µg/cm2 (Dermacentor variabilis): 90%
O=C(Nc1cccc(C(=O)Nc2c(I)cc(C(F)(C(F)(F)F)C(F)(F)F)cc2OC(F)(F)F)c1F)c1ccc(F)c(F)c1 [Compound 97]	95%	95%		100%	100%	≥ 70%	≥ 70%	90%	90%	90%	90%	90%	95%	95%	95%	≥ 70%	90%		90%	90%	pest or weed control at 0.04 µg/cm2, 0.04 µg/cm2 (Ctenocephalides felis [1]): 95%; pest or weed control at 1 µg/cm2, 1 µg/cm2 (Ixodes ricinus): 90%; pest or weed control at 0.04 µg/cm2, 0.04 µg/cm2 (Dermacentor variabilis): 90%
O=C(Nc1cccc(C(=O)Nc2c(Br)cc(C(F)(C(F)(F)F)C(F)(F)F)cc2OC(F)(F)F)c1F)c1ccc(F)cc1 [Compound 71]	95%	95%	100%	100%	100%	≥ 70%	≥ 70%	90%	90%	90%	90%	90%		95%	95%	≥ 70%	90%	90%	90%	90%	pest or weed control at 1 µg/cm2, 1 µg/cm2 (Ixodes ricinus): 90%
O=C(Nc1cc(C(=O)Nc2c(I)cc(C(F)(C(F)(F)F)C(F)(F)F)cc2C(F)(F)F)ccc1F)c1ccc(F)cc1 [Compound 84]			100%	100%	100%	≥ 70%	≥ 70%	90%	90%	90%	90%	90%	95%	95%	95%	≥ 70%	90%	90%	90%	90%	pest or weed control at 1 µg/cm2, 1 µg/cm2 (Ixodes ricinus): 90%
